For one experiment, the system named is TNF-α. Kind of experiment: In vitro test of cytokine release: LPS-stimulated human whole blood / PBMCs, TNFα by ELISA. In kind it is cell-based. Particulars: for IC50: LPS (E.coli 026:B6) stimulation 4 hours, table does not say whole blood or PBMCs; for TNF-α, value given in %: concentration not given. The method, then:
(§1) They may be administered in one individual dose or in a plurality of doses. The activity spectrum of the compounds as inhibitors of cytokine release was examined using the test systems below, as described by C. Donat and S. Laufer in Arch. Pharm. Pharm. […] 1, 1-40, 2000.
(§2) The reaction is stopped by placing the samples on ice, adding DPBS buffer and then centrifuging at 1000*g for 15 min. The amount of IL-1β and TNFα in the plasma supernatant is then determined by ELISA.
(§3) The cells are washed twice with DPBS buffer, resuspended in macrophage SFM medium and adjusted to a cell count of 1*10^6 cells/ml.
(§4) The reaction is stopped by placing the samples on ice, adding DPBS buffer and then centrifuging at 15 880*g for 12 min. The amount of IL-1β and TNFα in the plasma supernatant is then determined by ELISA.

The next experiment relates to IL-1β. Kind of experiment: In vitro test of cytokine release: LPS-stimulated human whole blood / PBMCs, IL-1β by ELISA. The following applies: for IC50: LPS (E.coli 026:B6) stimulation 4 hours, table does not say whole blood or PBMCs. In kind it is cell-based. As for the experimental part:
as §1, §2, §3, §4
Background: ELISA stands for enzyme-linked immunosorbent assay.

Results on 35 compounds are retold here after patent publication US7253191B2, “2-thio-substituted imidazole derivatives and the use thereof in the pharmaceutical industry” (Merckle GmbH, priority 2001, dated 2007).

As a reminder, the IC50 is the concentration that gives 50% inhibition. Read a low IC50 as greater potency in that assay.

As for `CCCn1c(SCc2ccc(Cl)cc2)nc(-c2ccc(F)cc2)c1-c1ccncc1` [Example 29, 2-(4-Chlorobenzyl)thio-4-(4-fluorophenyl)-1-n-propyl-5-(4-pyridyl)-imidazole], the IC50 in the experiment with TNF-α (Homo sapiens, Table 1) came out at 62 µM; in the experiment with IL-1β (Homo sapiens, Table 1), 1.3 µM.

For the compound `CCCn1c(SC)nc(-c2ccc(F)cc2)c1-c1ccnc(NCC)c1` [Example 74, 4-(4-Fluorophenyl)-1-n-propyl-5-(2-ethylamino-4-pyridyl)-2-methylthioimidazole], the IC50 with TNF-α (Homo sapiens, Table 2) amounted to 0.41 µM; with IL-1β (Homo sapiens, Table 2) it was 0.15 µM.

In the case of `CSc1nc(-c2ccc(F)cc2)c(-c2ccncc2)n1C1CC1` [Example 22, 1-Cyclopropyl-4-(4-fluorophenyl)-2-methylthio-5-(4-pyridyl)imidazole], the IC50 was determined as 1.1 µM in the experiment with TNF-α (Homo sapiens, Table 1) and 0.34 µM with IL-1β (Homo sapiens, Table 1).

On to `CCNc1cc(-c2c(-c3ccc(F)cc3)nc(SC)n2C2CC(C)(C)NC(C)(C)C2)ccn1` [Example 75], for which the IC50 was 2.9 µM in the experiment on TNF-α (Homo sapiens, Table 2) and 0.62 µM in the experiment with IL-1β (Homo sapiens, Table 2).

For `Fc1ccc(-c2[nH]c(=S)n(-c3cccnc3)c2-c2ccncc2)cc1` [Example 10, 4-(4-Fluorophenyl)-1-(3-pyridyl)-5-(4-pyridyl)-2-thioimidazole], the “TNF-α, value given in %” value with TNF-α (Table 1) was determined as 42%. In addition, the IC50 in the experiment with IL-1β (Table 1) amounted to 8 µM.

For “1-Dimethylaminophenyl-4-(4-fluorophenyl)-5-(4-pyridyl)-2-thioimidazole [Example 9]”, the IC50 in the experiment on TNF-α (Table 1) worked out at 15 µM; in the experiment with IL-1β (Table 1), 1.8 µM.

Regarding `CCCn1c(Sc2ccccc2)nc(-c2ccc(F)cc2)c1-c1ccncc1` [Example 52, 4-(4-Fluorophenyl)-2-phenylthio-1-n-propyl-5-(4-pyridyl)imidazole], the IC50 in the experiment with TNF-α (Homo sapiens, Table 1) is 14 µM; in the experiment on IL-1β (Homo sapiens, Table 1) it was 1 µM.

As for `Cn1c(SCCN2CCOCC2)nc(-c2ccc(F)cc2)c1-c1ccncc1` [Example 47], the IC50 with TNF-α (Table 1) is 28 µM; with IL-1β (Table 1), 1.7 µM.

For the compound `Cc1c(-c2ccc(F)cc2)nc(S)n1-c1cccnc1` [Example 58, 4-(4-Fluorophenyl)-5-methyl-1-(3-pyridyl)imidazole-2-thiol], the “TNF-α, value given in %” value in the experiment with TNF-α (Table 1) is given as 32%. Besides, inhibition with IL-1β (Homo sapiens, Table 1) was half-maximal at 28 µM (IC50).

For `C[S+]([O-])c1ccc(CSc2nc(-c3ccc(F)cc3)c(-c3ccncc3)n2CCN2CCOCC2)cc1` (stereo not shown) [Example 45, 4-(4-Fluorophenyl)-2-(4-methylsulfinyl)benzylthio-1-N-morpholinoethyl-5-(4-pyridyl)imidazole], the IC50 with TNF-α (Table 1) was found to be 12 µM; with IL-1β (Table 1), 2.4 µM.

Regarding `Fc1ccc(-c2[nH]c(=S)n(CCN3CCOCC3)c2-c2ccncc2)cc1` [Example 16, 4-(4-Fluorophenyl)-1-N-morpholinoethyl-5-(4-pyridyl)-2-thioimidazole], in the experiment with TNF-α (Table 1), the “TNF-α, value given in %” value is on record as 34%. Further, in the experiment with IL-1β (Table 1, concentration not given), the “IL-1β, value given in %” value is recorded as 44%.

With `CC(C)n1c(SCc2ccc(Cl)cc2)nc(-c2ccc(F)cc2)c1-c1ccncc1` [Example 34, 2-(4-Chlorobenzyl)thio-4-(4-fluorophenyl)-1-isopropyl-5-(4-pyridyl)-imidazole], the IC50 came out at 53 µM in the experiment on TNF-α (Homo sapiens, Table 1) and 5.3 µM in the experiment with IL-1β (Homo sapiens, Table 1).

Regarding `Fc1ccc(-c2[nH]c(=S)n(C3CCCCC3)c2-c2ccncc2)cc1` [Example 5, 1-Cyclohexyl-4-(4-fluorophenyl)-5-(4-pyridyl)-2-thioimidazole], the IC50 in the experiment with TNF-α (Table 1) was found to be 33 µM; in the experiment on IL-1β (Table 1), 5.4 µM.

Regarding `CSc1nc(-c2ccc(F)cc2)c(-c2ccnc(NCc3ccccc3)c2)n1C` [Example 70, 4-(4-Fluorophenyl)-1-methyl-5-(2-benzylamino-4-pyridyl)-2-methyl-thioimidazole], the IC50 in the experiment with TNF-α (Homo sapiens, Table 2) turned out to be 0.39 µM; in the experiment with IL-1β (Homo sapiens, Table 2) it was 0.08 µM.

For `Cn1c(S/C=C\c2ccccc2)nc(-c2ccc(F)cc2)c1-c1ccncc1` [Example 48, 1-cis-Phenylethenylthio-4-(4-fluorophenyl)-1-methyl-5-(4-pyridyl)-imidazole], the IC50 is 22 µM in the experiment on TNF-α (Homo sapiens, Table 1) and 1.7 µM in the experiment with IL-1β (Homo sapiens, Table 1).

Take `CCCn1c(SCc2ccc(SC)cc2)nc(-c2ccc(F)cc2)c1-c1ccncc1` [Example 31, 4-(4-Fluorophenyl)-2-(4-methylthio)benzylthio-1-n-propyl-5-(4-pyridyl)-imidazole]: the “TNF-α, value given in %” value in the experiment with TNF-α (Table 1) is recorded as 35%. Also, in the experiment with IL-1β (Table 1), the IC50 came to 4.7 µM.

Consider `CCCn1c(-c2ccncc2)c(-c2ccc(F)cc2)[nH]c1=S` [Example 3, 4-(4-Fluorophenyl)-1-n-propyl-5-(4-pyridyl)-2-thioimidazole], for which the IC50 with TNF-α (Table 1) turned out to be 32 µM; in the experiment on IL-1β (Table 1), 2.4 µM.

Regarding `CCCn1c(SC)nc(-c2ccc(F)cc2)c1-c1ccncc1` [Example 21, 4-(4-Fluorophenyl)-2-methylthio-1-n-propyl-5-(4-pyridyl)imidazole], the IC50 is 1.3 µM in the experiment with TNF-α (Homo sapiens, Table 1) and 0.36 µM in the experiment on IL-1β (Homo sapiens, Table 1).

Turning to `CC1(C)CC(n2c(-c3ccncc3)c(-c3ccc(F)cc3)[nH]c2=S)CC(C)(C)N1` [Example 12, 4-(4-Fluorophenyl)-5-(4-pyridyl)-1-(2,2,6,6-tetramethylpiperidin-4-yl)-2-thioimidazole], the IC50 came out at 45 µM in the experiment with TNF-α (Table 1) and 1.6 µM in the experiment on IL-1β (Table 1).

Take `CCCn1c(SCc2ccc([S+](C)[O-])cc2)nc(-c2ccc(F)cc2)c1-c1ccncc1` (stereo not shown) [Example 32, 4-(4-Fluorophenyl)-2-(4-methylsulfinyl)benzylthio-1-n-propyl-5-(4-pyridyl)imidazole]: the IC50 came to 24 µM in the experiment on TNF-α (Table 1) and 1.6 µM with IL-1β (Table 1).

Turning to `CSc1nc(-c2ccc(F)cc2)c(-c2ccnc(N)c2)n1C` [Example 66, 4-(4-Fluorophenyl)-1-methyl-5-(2-amino-4-pyridyl)-2-methyl-thioimidazole], the IC50 stood at 2.3 µM with TNF-α (Homo sapiens, Table 2) and 0.27 µM in the experiment on IL-1β (Homo sapiens, Table 2).

Take `CC(C)n1c(SCc2ccc(S(C)(=O)=O)cc2)nc(-c2ccc(F)cc2)c1-c1ccncc1` [Example 35, 4-(4-Fluorophenyl)-2-(4-methylsulfonyl)benzylthio-1-isopropyl-5-(4-pyridyl)imidazole]: the IC50 in the experiment with TNF-α (Table 1) turned out to be 2.7 µM; with IL-1β (Table 1), 1.5 µM.

Consider `CCCn1c(Sc2ccc(S(C)(=O)=O)cc2)nc(-c2ccc(F)cc2)c1-c1ccncc1` [Example 56, 4-(4-Fluorophenyl)-2-[(4-methylsulfonyl)phenyl]thio-1-n-propyl-5-(4-pyridyl)imidazole], for which the IC50 with TNF-α (Table 1) is 19 µM; with IL-1β (Table 1) it was 1.5 µM.

Consider “4-(4-Fluorophenyl)-2-(4-methylsulfonyl)benzylthio-1-N-morpholinoethyl-5-(4-pyridyl)imidazole [Example 44]”, for which the results for the IC50 in the experiment on TNF-α (Table 1) and with IL-1β (Table 1) were 12 µM and 1.4 µM, respectively.

Take `CC1(C)CC(n2cc(-c3ccc(F)cc3)nc2SCc2ccccc2)CC(C)(C)N1` [Example 46, 2-Benzylthio-4-(4-fluorophenyl)-1-(2,2,6,6-tetramethylpiperidin-4-yl)-imidazole]: the half-inhibitory concentration (IC50) came out at 12 µM in the experiment with TNF-α (Homo sapiens, Table 1) and 0.87 µM in the experiment with IL-1β (Homo sapiens, Table 1).

For the compound `CCCn1c(Sc2ccc([S+](C)[O-])cc2)nc(-c2ccc(F)cc2)c1-c1ccncc1` (stereo not shown) [Example 55, 4-(4-Fluorophenyl)-2-[(4-methylsulfinyl)phenyl]thio-1-n-propyl-5-(4-pyridyl)imidazole], the IC50 in the experiment on TNF-α (Table 1) was determined as 6.2 µM; in the experiment with IL-1β (Table 1), 0.72 µM.

As for `Fc1ccc(-c2nc(SCc3ccccc3)n(CCN3CCOCC3)c2-c2ccncc2)cc1` [Example 42, 2-Benzylthio-4-(4-fluorophenyl)-1-N-morpholinoethyl-5-(4-pyridyl)-imidazole], the IC50 came to 11 µM in the experiment on TNF-α (Homo sapiens, Table 1) and 1.3 µM with IL-1β (Homo sapiens, Table 1).

For the compound `CS(=O)(=O)c1ccc(CSc2nc(-c3ccc(F)cc3)c(-c3ccncc3)n2Cc2ccccc2)cc1` [Example 41, 1-Benzyl-4-(4-fluorophenyl)-2-(4-methylsulfonyl)benzylthio-5-(4-pyridyl)-imidazole], the IC50 in the experiment with TNF-α (Table 1) was determined as 1 µM; with IL-1β (Table 1), 0.36 µM.

As to `Fc1ccc(-c2[nH]c(=S)n(CCCN3CCOCC3)c2-c2ccncc2)cc1` [Example 14, 4-(4-Fluorophenyl)-1-(3-N-morpholinopropyl)-5-(4-pyridyl)-2-thioimidazole], the figures for the IC50 in the experiment on TNF-α (Table 1) and with IL-1β (Table 1) were 100 µM and 18 µM, respectively.

Turning to `Fc1ccc(-c2nc(SCc3ccccc3)n(CCCN3CCOCC3)c2-c2ccncc2)cc1` [Example 43], the IC50 is 5.4 µM with TNF-α (Table 1) and 0.89 µM with IL-1β (Table 1).

In the case of `CC(C)n1c(-c2ccncc2)c(-c2ccc(F)cc2)[nH]c1=S` [Example 4], the “TNF-α, value given in %” value in the experiment with TNF-α (Table 1) was 46%. The midpoint of inhibition in the experiment with IL-1β (Table 1), the IC50, lay at 2.2 µM.

On to `CCCn1c(Sc2ccc(SC)cc2)nc(-c2ccc(F)cc2)c1-c1ccncc1` [Example 54, 4-(4-Fluorophenyl)-2-(4-methylsulfanyl)phenylsulfanyl-1-n-propyl-5-(4-pyridyl)imidazole], for which the IC50 with TNF-α (Table 1) came to 68 µM; with IL-1β (Table 1), 2.5 µM.

Consider `CCCn1c(SCc2ccccc2)nc(-c2ccc(F)cc2)c1-c1ccncc1` [Example 28, 2-Benzylthio-4-(4-fluorophenyl)-1-n-propyl-5-(4-pyridyl)imidazole], for which the IC50 in the experiment on TNF-α (Homo sapiens, Table 1) stood at 29 µM; in the experiment on IL-1β (Homo sapiens, Table 1), 0.65 µM.

As to `CN(C)CCn1c(-c2ccncc2)c(-c2ccc(F)cc2)[nH]c1=S` [Example 11, 1-Dimethylaminoethyl-4-(4-fluorophenyl)-5-(4-pyridyl)-2-thioimidazole], the “TNF-α, value given in %” value in the experiment with TNF-α (Table 1) worked out at 19%. This compound also returned an IC50 in the experiment with IL-1β (Table 1) of 12 µM.

Turning to `CSc1nc(-c2ccc(F)cc2)c(-c2ccncc2)n1C` [Example 20], the IC50 amounted to 2.5 µM with TNF-α (Table 1) and 0.45 µM in the experiment on IL-1β (Table 1).
